From patent US20180353500A1, “ADMINISTRATION OF DEUTERATED CFTR POTENTIATORS” (Vertex Pharmaceuticals (Europe) Limited, priority 2015, published 2018)

Columns and labels:
[1] = Human crossover study for D9-ivacaftor and D18-ivacaftor (25 mg single dose); format: in vivo; conditions: 25 mg single oral dose, aqueous suspension, fasted
Protocol: Six healthy volunteers were enrolled in a cross-over comparison of 25 mg D9-ivacaftor (CTP-656) and 25 mg D18-ivacaftor (FIG. 7A). The objective of the study was to compare the pharmacokinetics of a single dose of 25 mg D9-ivacaftor and 25 mg D18-ivacaftor. Doses of D9-ivacaftor (CTP-656) and D18-ivacaftor were administered as an aqueous suspension. All doses of D9-ivacaftor (CTP-656) and D18-ivacaftor were administered to fasted subjects (three subjects per group). There was a 7 day washout between doses.

[2] = Human crossover study for D9-ivacaftor and ivacaftor (150 mg tablets); format: in vivo; conditions: 150 mg single dose
Protocol: Healthy volunteers were enrolled in a cross-over comparison of 150 mg D9-ivacaftor (CTP-656) and 150 mg ivacaftor (Kalydeco)(FIG. 8, left panel). The objective of the study was to compare the safety, tolerability, and pharmacokinetics of a single dose of 150 mg D9-ivacaftor and 150 mg ivacaftor. Doses of D9-ivacaftor (CTP-656) and ivacaftor were administered as tablets (the D9-ivacaftor was administered as two 75 mg tablets). All doses of D9-ivacaftor (CTP-656) and […] were administered to fed subjects (high fat breakfast) (four subjects per sequence). There was a 7 day washout between doses. Blood samples were taken at intervals.

- PK profile compared to D18-ivacaftor [1]: superior PK profile
- Cmax ([1]; human, in vivo): 270 ng/mL
- AUC(0-inf) ([1]; human, in vivo, read-out: AUC0-inf, mean): 3810 ng·h/mL
- concentration at 24 h ([1]; human, in vivo, read-out: C24 hr, mean): 52.6 ng/mL
- Tmax ([1]; human, in vivo, read-out: Tmax, median): 3 h
- half-life, increase over the half-life of ivacaftor ([2]; fed): about 40%
- oral clearance relative to ivacaftor ([2]; fed): about one-third that of ivacaftor
- AUC0-24 hr compared to ivacaftor ([2]; fed (high fat breakfast)): approximately 3 fold
- C24 hr compared to ivacaftor ([2]; fed (high fat breakfast)): approximately 3 fold
- half-life ([2]; human, in vivo, oral, fed): ~15 h
Compound: [2H]C([2H])([2H])C(c1cc(C(C)(C)C)c(NC(=O)c2c[nH]c3ccccc3c2=O)cc1O)(C([2H])([2H])[2H])C([2H])([2H])[2H] [CTP-656]
